Values of other authors as cited in US9399657B2, “Chemiluminescent methods and reagents for analyte detection” (priority 2007, dated 2016).

Biological target: firefly luciferase (Photinus pyralis, UniProt P08659)
Conditions: read-out: IC50 (inhibitor of firefly luciferase bioluminescence reaction)

Sequence of firefly luciferase (P08659 whole entry): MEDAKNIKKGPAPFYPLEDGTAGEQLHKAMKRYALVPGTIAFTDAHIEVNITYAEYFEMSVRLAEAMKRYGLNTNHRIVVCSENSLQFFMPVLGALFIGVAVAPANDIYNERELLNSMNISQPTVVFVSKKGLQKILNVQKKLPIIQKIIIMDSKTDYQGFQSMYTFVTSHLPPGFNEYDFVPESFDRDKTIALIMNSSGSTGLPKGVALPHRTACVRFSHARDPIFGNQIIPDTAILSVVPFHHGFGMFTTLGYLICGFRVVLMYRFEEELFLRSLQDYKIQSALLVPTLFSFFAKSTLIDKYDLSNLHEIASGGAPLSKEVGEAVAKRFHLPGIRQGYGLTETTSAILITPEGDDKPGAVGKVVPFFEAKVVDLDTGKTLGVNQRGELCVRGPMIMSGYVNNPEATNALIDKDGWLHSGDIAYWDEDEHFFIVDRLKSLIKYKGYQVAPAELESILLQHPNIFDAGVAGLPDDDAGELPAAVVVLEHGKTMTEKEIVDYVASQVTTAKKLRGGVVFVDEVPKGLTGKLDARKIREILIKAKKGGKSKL

In the case of `O=C(O)c1csc(-c2nc3ccc(O)cc3s2)n1` [firefly dehydroluciferin], the IC50 is given as 6 nM.
